Reference: PubChem BioAssay AID2305 (GlaxoSmithKline (GSK), 2010)

tested on: P. falciparum 3D7 growth, pLDH absorbance; assay: P. falciparum 3D7 growth inhibition, dose response, strain 3D7 (AID 2305)

| Compound | IC50 |
| --- | --- |
| Nc1nccc2ccc(-c3ccc4ncccc4c3)cc12 | 110 nM |
| CC(C)(C)c1ccc(CN2CCC(CNC(=O)c3cc(-c4cccc(C(F)(F)F)c4)cs3)C2)cc1 (stereo unspecified) | 1030 nM |
| COc1ccc(Cc2c(Cl)nc3nc(N)nc(N)c3c2C)cc1 | 1090 nM |
| CC(C)COc1ccc(Cl)cc1Cc1ccc(-c2nc3ccc(CCN4CCCC4)cc3[nH]2)o1 | 730 nM |
| COc1ccc(NC(=O)Nc2cccc(-c3ccncc3)c2)cc1N1CCN(C)CC1 | 550 nM |
| O=C(O)c1ccc2nc(-c3ccc(-c4ccccc4)cc3)n(C3CCN(Cc4ccc(-c5ncc[nH]5)cc4)CC3)c2c1 | 1730 nM |
| O=S(=O)(Nc1ccc2nccc(N3CCNCC3)c2c1)c1ccc2oc3ccccc3c2c1 | 690 nM |
| Cc1noc(C)c1-c1cccc(C(=O)NC2CCN(CCNC(=O)C(c3ccccc3)c3ccccc3)CC2)c1 | 1220 nM |
| N#Cc1ccc(NC(=NC2CCCc3ccccc32)Nc2ccc(-c3ccccc3)cc2)c(O)c1 (stereo unspecified) | 780 nM |
| CCOC(=O)CCCCOc1c(OC)cc(Cc2cnc(N)nc2N)cc1OC | 30 nM |
| CC(Oc1ccc(NC(=O)c2cccs2)cc1)C(=O)c1ccc(Cl)cc1 (stereo unspecified) | 770 nM |
| O=C(NCCc1ccccc1)c1cc(-c2cccnc2)cnc1NCC1CC1 | 850 nM |
| CCOC(=O)c1[nH]c2cc(Cl)cc(Cl)c2c1/C=C/C(=O)Nc1ccc(-c2cnc(NC(C)=O)[nH]2)cc1 | 1020 nM |
| COc1cc2nc(N3CCN(c4cc(C)ccc4C)CC3)nc(N)c2cc1OC | 850 nM |
| Cc1ccc(-n2c(Sc3ncnc4sccc34)nnc2N2CCCC2)cc1 | 260 nM |
| CCC[C@@H]([C@@H](Cc1ccc(C)s1)C(=O)N[C@@H](CNC(C)=O)C(=O)Nc1nccs1)N(O)C=O | 180 nM |
| CN1CCC=C(C(=O)NCC(C)(C)c2nc(-c3ccc(Cl)c(O)c3)c(-c3ccncc3)[nH]2)C1 | 1000 nM |
| O=C(Nc1ccc(CCN2CCC(c3nc(COCC(F)(F)F)c(-c4ccccc4)o3)CC2)cc1)c1ccc(F)cc1 | 1970 nM |
| Cc1cnc2ccc(NS(=O)(=O)c3sc4ccc(Cl)cc4c3C)cc2c1N1CCNCC1 | 810 nM |
| CC(C)(C)S[C@H]1S[C@H](SC(C)(C)C)[C@@H](OC(=O)c2ccccc2)C(OC(=O)c2ccccc2)[C@H]1OC(=O)c1ccccc1 (stereo partly specified) | 940 nM |
| Cc1cccc2[nH]c(-c3ccc(-c4ccc(CN5CCC(CO)CC5)cc4)s3)nc12 | 810 nM |
| CN1C(=O)[C@H](NC(=O)[C@@H](Cc2ccccc2)NC(=S)Nc2ccccc2)N=C(c2ccccc2)c2ccccc21 | 860 nM |
| Cn1cc(CCNc2ccnc(NCCc3coc4ccccc34)n2)c2ccccc21 | 1060 nM |
| CN1C(=O)OC[C@@H]1Cc1ccc2[nH]cc(C3=CCN(Cc4ccccc4)CC3)c2c1 | 420 nM |

| Compound | IC50 |
| --- | --- |
| O=C(Nc1cccc(-c2ccc(-c3nc4ccc(C(F)(F)F)cc4[nH]3)cc2)c1)c1cnc[nH]1 | 970 nM |
| COc1ccc(Cn2c(Nc3cccc(C(F)(F)F)c3)nc3cc(C(=O)NC(C)C)cnc32)cc1Cl | 970 nM |
| O=[N+]([O-])c1ccccc1C=NNc1ccnc2cc(Cl)ccc12 | 880 nM |
| Cc1ccc(O)c(Nc2c3c(c(C#N)c4nc5ccccc5n24)CCC3)c1 | 1250 nM |
| Cc1cccc(C(=O)Nc2ccnc(N3CCC(N(C)Cc4ccc(C#N)cc4)CC3)c2)c1 | 910 nM |
| Cc1cc(N[C@@H](CC(C)C)C(=O)NCc2cccc(F)c2)nc(NCCc2ccccc2)n1 | 1080 nM |
| CNC(=O)NC1=NC(C)(C)N(OCCCOc2cc(Cl)c(Cl)cc2Cl)C(N)=N1 | 930 nM |
| CCN1CCN(c2cc(C)c3cc(NC(=O)c4cc(OC)cc(OC)c4)ccc3n2)CC1 | 160 nM |
| Cc1ccc2c(NN=Cc3ccccc3[N+](=O)[O-])cc(C)nc2c1 | 420 nM |
| COc1ccc2nccc(N3CCC(NCCNCc4cc5c(cn4)OCCO5)C3)c2n1 (stereo unspecified) | 580 nM |
| CN1CCN(c2ccnc3ccc(NC(=O)Nc4ccc5c(c4)CCC5=O)cc23)CC1 | 330 nM |
| COc1cc2cc(-c3nc4ccccc4[nH]3)c(N)nc2cc1OC | 170 nM |
| OCC1CCN(Cc2ccc(-c3ccc(-c4nc5ccc(F)cc5[nH]4)cc3)cc2)CC1 | 840 nM |
| Cc1cccc2[nH]c(-c3ccc(-c4ccc(NC(=O)NCc5ccccc5)cc4)s3)nc12 | 770 nM |
| O=c1c2ccc(Sc3ccccn3)cc2n(-c2ccccc2)c2cc(Sc3ccccn3)ccc12 | 200 nM |
| COc1ccc2nccc([C@@H](O)CN3CCC(NCc4ccc5c(c4)oc(=S)n5C)CC3)c2c1 | 190 nM |
| O=S(=O)(Nc1cccc(F)c1CNCc1ccccn1)c1ccc(Cl)c(Cl)c1 | 890 nM |
| CCc1ccc(-n2c(=O)c3cccnc3n2CC(=O)NC2CCCC2)cc1 | 920 nM |
| CCNc1cc(C(=O)N[C@@H](Cc2ccccc2)[C@H](O)CNCCCc2ccc(OC)cc2)cc(N2CCCC2=O)c1 | 560 nM |
| CC1(C)N=C(N)NC(NOCc2ccc(Cl)c(Cl)c2)=N1 | 230 nM |
| CN(C)c1cc(C(=O)N[C@@H](Cc2ccccc2)[C@H](O)CNC2CCCCC2)cc2[nH]ccc12 | 1070 nM |
| CCN(Cc1ccccc1)C1CCN(Cc2cc(Br)ccc2O)CC1 | 820 nM |
| CCc1nc(N)nc(N)c1CCCOc1ccccc1Cl | 100 nM |
| COc1cccc(C(=O)NC(NC(=S)Nc2ccc(OC)cc2[N+](=O)[O-])C(Cl)(Cl)Cl)c1 (stereo unspecified) | 760 nM |

| Compound | IC50 |
| --- | --- |
| CCc1ccc(CN2CCC(CN(c3ccc(N4CCOCC4)c(F)c3)S(=O)(=O)c3ccc(C(C)(C)CC)cc3)CC2)cc1 | 710 nM |
| Cc1cc(C)cc(OCC(O)CN(CCN2CCOCC2)C(=O)Nc2ccc(Br)cc2)c1 (stereo unspecified) | 1030 nM |
| OC(CN1CCN(C2CCCCC2)CC1)Cn1c2ccccc2c2cc(Br)ccc21 (stereo unspecified) | 860 nM |
| COc1cccc2sc(Nc3nc(-c4ccccn4)cs3)nc12 | 800 nM |
| c1ccc(N2CCN(c3cc(-c4cccnc4)nc(-c4ccncc4)n3)CC2)nc1 | 760 nM |
| Cc1cnccc1/C=C/c1cccc(OCCN2CCc3ccc(S(C)(=O)=O)cc3CC2)c1 | 270 nM |
| COc1ccc2nc(-c3cccc(C)n3)nc(Nc3ccncc3)c2c1 | 670 nM |
| CC(C)(C)C(Cn1ccnc1)NCc1cn[nH]c1-c1ccc(-c2ccccc2)cc1 (stereo unspecified) | 1060 nM |
| Fc1ccc(Nc2n[nH]c(CNC3CCN(Cc4ccc(Cl)c(Cl)c4)CC3)n2)cc1 | 1380 nM |
| COc1ccc(C=C2SC(=N)N(c3ccccc3OC)C2=O)cc1 | 300 nM |
| O=C(Nc1cccc(OCc2ccccc2)c1)c1ccc(CN2CCC(Cc3ccccc3)CC2)cc1 | 850 nM |
| OC(CNC1CCCCC1)Cn1c2ccccc2c2ccccc21 (stereo unspecified) | 990 nM |
| O=c1cc(NC[C@H]2CCC[C@@H]2NCc2cc(Br)cc(Br)c2)[nH]c2ccccc12 | 680 nM |
| Cc1sc(CNCCCNc2cc(=O)c3ccccc3[nH]2)c(I)c1C | 850 nM |
| O=C1CSc2ccc(CNC3CCN(CCc4c(Cl)cnc5ccc(F)cc45)CC3)nc2N1 | 430 nM |
| O=C(Nc1ccc(Cl)cc1)Nc1cccc(-c2ccc(-c3nc4ccccc4[nH]3)cc2)c1 | 930 nM |
| CCN(CCCN1CCCCC1)c1cc(C)nc(Nc2ccc(C)cc2C(F)(F)F)n1 | 540 nM |
| CC(C)C[C@H](NC(=O)c1cc2ccccc2s1)C(=O)N[C@H]1CCN(Cc2ccc(I)c(OCCN3CCCC3)c2)C1 | 1350 nM |
| CN1CCC(NCc2cccc(-c3ccc(S(=O)(=O)NCCc4ccccn4)cc3)c2)CC1 | 830 nM |
| Cc1cc(Nc2ccncc2)n2nc(C)c(-c3ccccc3Cl)c2n1 | 650 nM |
| COc1ccccc1N1CCN(Cc2c(NC(C)=O)sc(C)c2C)CC1 | 430 nM |
| CSc1cccc(NC(=O)Nc2ccc(I)c(OCCN(C)C)c2)c1 | 690 nM |
| COc1ccccc1N1CCN(CCCCNC(=O)c2ccc(NC(=O)c3cc4ccccc4o3)cc2)CC1 | 980 nM |
